# Laboratory results reported in PubChem BioAssay AID602236 (The Scripps Research Institute Molecular Screening Center, 2012).
# Calls of active or inactive are those of the source.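 The calls were made as follows: active = IC50 of 10 µM or lower; inactive = IC50 above 10 µM.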
# Test system: HEK-293 Gal4-VP16 UAS luciferase reporter, luminescence
# Experiment: GAL4-VP16 reporter repression curves – cell-based, luminescence, high throughput, SRC1 series, counter-screen for SRC1 inhibitor project, dose response (AID 602236);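 also: inhibitor potency where hits lower luciferase light from Gal4-VP16 transactivation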
row,SMILES,IC50
1,O=C(N/N=C/c1coc2ccc(Cl)cc2c1=O)c1ccc(O)cc1,> 35.9 µM (inactive)
2,CN(CC(=O)Nc1ccc(Cl)c(C(F)(F)F)c1)C(=O)C1CC(=O)N(c2ccc3c(c2)OCCO3)C1 (configuration not stated),25.1 µM (inactive)
3,CCC(C)(C)n1nnnc1CN1CCC(n2c(C)nc3cc(C(F)(F)F)ccc32)CC1,> 35.9 µM (inactive)
4,COc1ccc2ncn(-c3ccccc3)c2c1,5.95 µM
5,CC(C)Cn1c(N)c(C(=O)COC(=O)c2cc3ccccc3cc2O)c(=O)n(C)c1=O,29.3 µM (inactive)
6,CS(=O)(=O)Nc1cccc(NC(=O)C2Cc3c(-c4ccco4)ccnc3O2)c1 (configuration not stated),19.3 µM (inactive)
7,O=C(CCCc1nc(-c2ccccc2Cl)no1)NC1CCCC1,13.6 µM (inactive)
8,Cc1ccc(NC(=O)NC2CC(=O)N(c3ccc4c(c3)OCCO4)C2)cc1C (configuration not stated),20.6 µM (inactive)
9,COc1ccc(NC(=O)CN(C)C(=O)C2(c3ccccc3)CCCC2)cc1,36.3 µM (inactive)
10,Cc1ccc(S(=O)(=O)Nc2c(NC3CCCCC3)c3ccccc3oc2=O)c(C)c1,12.8 µM (inactive)
11,COc1ccc(-c2cnc(N)nc2-c2ccc(OC)cc2O)cc1,11.7 µM (inactive)
12,CC(C)n1c(-c2cccnc2)nc2cnccc21,9.47 µM
13,C=CCOc1ccc(/C=C2\SC(=S)N(CCC(=O)O)C2=O)cc1,> 35.9 µM (inactive)
14,CCOc1cccc(/C=N/NC(=O)c2cc(C3CC3)[nH]n2)c1O,11.2 µM (inactive)
15,CCOc1cc(C(N)=O)cc(Br)c1OC,17.1 µM (inactive)
16,CCOC(=O)c1cccc2c1-c1ccccc1/C2=N/O,8.12 µM
17,COc1ccc(OC)c(/C=C2\NC(=O)NC2=O)c1,10.8 µM (inactive)
18,Cc1noc(/C=C/c2ccco2)c1S(=O)(=O)N1CCC(C(=O)Nc2ccc(Cl)cn2)CC1,16.1 µM (inactive)
19,Cc1ccc(N(Cc2cc(=O)[nH]c3ccccc23)C(=O)CCl)c(C)c1,6.66 µM

row,SMILES,IC50
1,O=C1NCCc2c1[nH]c1ccc([N+](=O)[O-])cc21,32 µM (inactive)
2,O=C(O)c1ccccc1-c1c2cc(I)c(=O)c(I)c-2oc2c(I)c(O)c(I)cc12,> 35.9 µM (inactive)
3,CC(=O)c1cc2c(C)cc(=O)oc2cc1O,29 µM (inactive)
4,O=C(CCl)NC(Cc1ccccc1)c1ccccc1 (configuration not stated),20.8 µM (inactive)
5,Cc1ccc(S(=O)(=O)N2[C@@H](c3ccc(C(C)(C)C)cc3)C(C(=O)O)=CC[C@H]2c2ccc(Cl)cc2)cc1,16 µM (inactive)
6,Nc1ccn(C2OC(CO)C(O)C2O)c(=O)n1 (configuration not stated),21.7 µM (inactive)
7,CN(C)c1ccc(Nc2ncnc3ccc(Br)cc23)cc1,3.2 µM
8,CCc1ccc(/C=C2\SC(=S)N(CCCC(=O)NCCCN3CCOCC3)C2=O)cc1,12.7 µM (inactive)
9,CCCCN(CCCC)c1ncnc2nc[nH]c12,6.97 µM
10,O=C(CCC1CCCC1)Nc1ccc(C(=O)NCc2cccnc2)cc1,7.75 µM
11,Cc1ccc(N=c2c([N+](=O)[O-])nn(-c3ccc4c(c3)OCCO4)n2O)cc1F,27 µM (inactive)
12,Cc1ccc(S(=O)(=O)NC(CC(C)C)C(=O)NCC(c2ccco2)N2CCCCC2)cc1 (configuration not stated),> 35.9 µM (inactive)
13,COc1cc(/C=C2\SC(N)=NC2=O)cc(OC)c1,8.33 µM
14,O=C(N/N=C/c1cc([N+](=O)[O-])ccc1O)c1cccc(N2CCCC2=O)c1,18.3 µM (inactive)
15,O=C(CCl)N1N=C(c2cccs2)CC1c1ccco1 (configuration not stated),20.2 µM (inactive)
16,COc1ccc(-n2cnc3c(sc4nccc(N(C)C)c43)c2=O)cc1,14.2 µM (inactive)
17,O=C(CCl)N1N=C(c2ccco2)CC1c1cccs1 (configuration not stated),16 µM (inactive)
18,c1ccc(-c2nnc(-c3ccccn3)nc2NC2CCCCC2)cc1,> 35.9 µM (inactive)
19,CCc1nc(N)nc(N)c1-c1ccc(Cl)c([N+](=O)[O-])c1,> 35.8 µM (inactive)

row,SMILES,IC50
1,O=C(Nc1cccc2c1CCCC2)c1cc([N+](=O)[O-])ccc1Cl,9.3 µM
2,CCOc1ccc(/C=C2\SC(=S)N(CCCC(=O)NCCCN3CCOCC3)C2=O)cc1,21.9 µM (inactive)
3,COc1ccccc1-c1cc2nc(-c3ccccc3)cc(N3CCN(C(=O)c4ccco4)CC3)n2n1,4.1 µM
4,CC(=O)/C(N=Nc1ccc2c(c1)OCCO2)=C(\C)O,> 35.9 µM (inactive)
5,COc1ccc2c(=O)cc(-c3ccncc3)oc2c1OC,> 12 µM (inactive)
6,Cc1ccc(/C=C2/SC(=S)N(CCCC(=O)Nc3ccc(O)cc3)C2=O)cc1,> 12 µM (inactive)
7,Cc1ccc2occ(/C=N/NC(=O)[C@@H](N)Cc3ccccc3)c(=O)c2c1,12.7 µM (inactive)
8,CN(C)C(=O)c1ccc(-c2n[nH]c(=O)c3ccccc23)cc1,16.2 µM (inactive)
9,O=C(CCn1cnc(-c2ccccc2)c1-c1ccccc1)N/N=C/c1ccccc1O,19.9 µM (inactive)
10,Cc1sc2ncnc(N3CCC(C(=O)N(C)CC(=O)Nc4cccc(F)c4)CC3)c2c1C,15 µM (inactive)
11,Cc1ccc(O)c(Nc2ncnc3ccc([N+](=O)[O-])cc23)c1,10.8 µM (inactive)
12,CC(C)(C)OC(=O)NCC(=O)Oc1cc2oc(=O)cc(-c3ccccc3)c2cc1Cl,21.8 µM (inactive)
13,COc1cc(C(=O)NC(=S)NNC(=O)c2cnccn2)cc(OC)c1OC,11.9 µM (inactive)
14,O=[N+]([O-])c1ccc2c(c1)-c1ccccc1C2=NO,> 35.9 µM (inactive)
15,CC(=O)N1CCN(c2ccc(Oc3ncnc4sccc34)cc2)CC1,9.64 µM
16,COc1cc(C(=O)N/N=C(\c2ccccc2)c2ccccn2)cc(OC)c1OC,8.61 µM
17,Cc1ccc2nc(C(F)(F)F)c(C#N)c(N)c2c1,10.4 µM (inactive)
18,OCCN(CCO)CC(O)COc1ccc(C23CC4CC(CC(C4)C2)C3)cc1 (configuration not stated),> 35.9 µM (inactive)
19,CCOC(=O)c1c(NC(=O)C(C)N2CCN(C(=O)c3ccco3)CC2)sc2c1CCCC2 (configuration not stated),11.4 µM (inactive)
